Test results: the OligoGym collection
Only the 19 paired bases of each siRNA are shown; overhangs and chemistry are not given here.

What was measured:
Experiment in all cases: five studies, different assays
Settings in all cases: siRNA
[1] = biological target: PTEN
[2] = biological target: ICAM1
[3] = biological target: placental-type alkaline phosphatase
[4] = biological target: LMNA
Also: test concentration or dose not given here.

Substance | target inhibition [1] [%] | target inhibition [2] [%] | also measured
sense AAAGGUGAAGAUAUAUUCC / antisense GGAAUAUAUCUUCACCUUU | 9 |  | 
sense AACACACAAGCCACGCCUC / antisense GAGGCGUGGCUUGUGUGUU |  | 1 | 
sense AAGAAACACAGCAACAAUG / antisense CAUUGUUGCUGUGUUUCUU | 30 |  | 
sense AAGAAUGGGCUUGAAACAU / antisense AUGUUUCAAGCCCAUUCUU | 40 |  | 
sense AAGGAGUUGCUCCUGCCUG / antisense CAGGCAGGAGCAACUCCUU |  | -15 | 
sense AAGUAAGGACCAGAGACAA / antisense UUGUCUCUGGUCCUUACUU | 75 |  | 
sense AAGUCUAGCCUGAUGAGAG / antisense CUCUCAUCAGGCUAGACUU |  | 50 | 
sense ACACUGCAGGAGAGUGCCU / antisense AGGCACUCUCCUGCAGUGU |  | 0 | 
sense ACAGACAGCCGCCAAGAAC / antisense GUUCUUGGCGGCUGUCUGU |  |  | target inhibition [3]: 54.7%
sense ACCAUCUCCAGCUAUUUAC / antisense GUAAAUAGCUGGAGAUGGU | 6 |  | 
sense ACCUCAUCAUCUUCCUGGG / antisense CCCAGGAAGAUGAUGAGGU |  |  | target inhibition [3]: 49%
sense ACCUCUGUCGGGCCAGGAG / antisense CUCCUGGCCCGACAGAGGU |  | 5 | 
sense ACGGUGCUGGUGAGGAGAG / antisense CUCUCCUCACCAGCACCGU |  | -20 | 
sense AGCUCCUGCUGAAGGCCAC / antisense GUGGCCUUCAGCAGGAGCU |  | 10 | 
sense AGGAGAACCCGGACUUCUG / antisense CAGAAGUCCGGGUUCUCCU |  |  | target inhibition [3]: 81%
sense AGUACCCAGAUGACUACAG / antisense CUGUAGUCAUCUGGGUACU |  |  | target inhibition [3]: 1.85%
sense AGUCGACGCUGAGCUCCUC / antisense GAGGAGCUCAGCGUCGACU |  | 0 | 
sense AGUGAAUCUGUAUUGGGGU / antisense ACCCCAAUACAGAUUCACU | 39 |  | 
sense AGUGAUCCUCCCACCUCAG / antisense CUGAGGUGGGAGGAUCACU |  | 45 | 
sense AUAAAGACAAAGCCAACCG / antisense CGGUUGGCUUUGUCUUUAU | 0 |  | 
sense AUACAGGAACAAUAUUGAU / antisense AUCAAUAUUGUUCCUGUAU | 49 |  | 
sense CAAACAUGUGCCAGACAGU / antisense ACUGUCUGGCACAUGUUUG |  |  | target inhibition [3]: 88%

Substance | target inhibition [1] [%] | target inhibition [2] [%] | also measured
sense CAAAUCCAGAGGCUAGCAG / antisense CUGCUAGCCUCUGGAUUUG | 44 |  | 
sense CACUGACUCUGAUCCAGAG / antisense CUCUGGAUCAGAGUCAGUG | 15 |  | 
sense CACUGCCGACCACUCCCAC / antisense GUGGGAGUGGUCGGCAGUG |  |  | target inhibition [3]: -10%
sense CAGUCAGAGGCGCUAUGUG / antisense CACAUAGCGCCUCUGACUG | 73 |  | 
sense CAUUGGCCAACCUGCCUUU / antisense AAAGGCAGGUUGGCCAAUG |  | 28 | 
sense CCAACCAAUGUGCUAUUCA / antisense UGAAUAGCACAUUGGUUGG |  | 7 | 
sense CCAGACUUCCUUUGUGUUA / antisense UAACACAAAGGAAGUCUGG |  | 48 | 
sense CCAGGUCCACCUGGCACUG / antisense CAGUGCCAGGUGGACCUGG |  | 21 | 
sense CCAUGAAACCGAACACACA / antisense UGUGUGUUCGGUUUCAUGG |  | 59 | 
sense CCAUGAGGACAUACAACUG / antisense CAGUUGUAUGUCCUCAUGG |  | 58 | 
sense CCAUGGUACCUGCACACCU / antisense AGGUGUGCAGGUACCAUGG |  | 75 | 
sense CCUACACGGUCCUCCUAUA / antisense UAUAGGAGGACCGUGUAGG |  |  | target inhibition [3]: 62.4%
sense CCUACCAGCUCCAGACCUU / antisense AAGGUCUGGAGCUGGUAGG |  | 45 | 
sense CCUCUUGGCAGCCAGUGGG / antisense CCCACUGGCUGCCAAGAGG |  | 18 | 
sense CCUGUGAGCAGCCGCGGGG / antisense CCCCGCGGCUGCUCACAGG | 25 |  | 
sense CCUUUUGUGAAGAUCUUGA / antisense UCAAGAUCUUCACAAAAGG | 73 |  | 
sense CGGAAACGGUCCAGGCUAU / antisense AUAGCCUGGACCGUUUCCG |  |  | target inhibition [3]: 80.2%
sense CGGAUGCCAGCUUGGGCAC / antisense GUGCCCAAGCUGGCAUCCG |  | 24 | 
sense CUCAGAAAGGAAAUAAUUU / antisense AAAUUAUUUCCUUUCUGAG | 30 |  | 
sense CUCAGCGGUCAUGUCUGGA / antisense UCCAGACAUGACCGCUGAG |  | 33 | 
sense CUCUGGCUGCUGAGGAGAA / antisense UUCUCCUCAGCAGCCAGAG | 52 |  | 
sense CUUCCUCGGCUUCUCCUGA / antisense UCAGGAGAAGCCGAGGAAG | 62 |  | 

Substance | target inhibition [1] [%] | target inhibition [2] [%] | also measured
sense CUUGACCUAUAUUUAUCCA / antisense UGGAUAAAUAUAGGUCAAG | 48 |  | 
sense GACGUGUGCAGUAAUACUG / antisense CAGUAUUACUGCACACGUC |  | 30 | 
sense GAGGCAGCCGUUCGGAGGA / antisense UCCUCCGAACGGCUGCCUC | 58 |  | 
sense GAUUCUGACGAAGCCAGAG / antisense CUCUGGCUUCGUCAGAAUC |  | -10 | 
sense GCACAUCCAGGGACCCGGG / antisense CCCGGGUCCCUGGAUGUGC | 32 |  | 
sense GCCACACUGAACAGAGUGG / antisense CCACUCUGUUCAGUGUGGC |  | 21 | 
sense GCGGCGGCGGCACCUCCCG / antisense CGGGAGGUGCCGCCGCCGC | 20 |  | 
sense GCGGUCCAGAGCCAAGCGG / antisense CCGCUUGGCUCUGGACCGC | 31 |  | 
sense GCUACAGUUAUUAAUCUGG / antisense CCAGAUUAAUAACUGUAGC | 37 |  | 
sense GCUCAAGUGUCUAAAGGAU / antisense AUCCUUUAGACACUUGAGC |  | 40 | 
sense GGAGCUUCGUGUCCUGUAU / antisense AUACAGGACACGAAGCUCC |  | 58 | 
sense GGAUGCCAGCUUGGGCACU / antisense AGUGCCCAAGCUGGCAUCC |  | 40 | 
sense GGGACAGGGCCUCUUCCUC / antisense GAGGAAGAGGCCCUGUCCC |  | 52 | 
sense GGGACGAACUGGUGUAAUG / antisense CAUUACACCAGUUCGUCCC | 75 |  | 
sense GGGCAUUGUCCUCAGUCAG / antisense CUGACUGAGGACAAUGCCC |  | 62 | 
sense GGGUAAAUACAUUCUUCAU / antisense AUGAAGAAUGUAUUUACCC | 70 |  | 
sense GGUCCCGUCCGCCUCUCGC / antisense GCGAGAGGCGGACGGGACC | 0 |  | 
sense GGUCCUAGAGGUGGACACG / antisense CGUGUCCACCUCUAGGACC |  | 10 | 
sense GGUCUCUGGCCUCACGGAG / antisense CUCCGUGAGGCCAGAGACC |  | 7 | 
sense GGUCUUCCGAGGCGCCCGG / antisense CCGGGCGCCUCGGAAGACC | 0 |  | 
sense GUCAUCAUCACUGUGGUAG / antisense CUACCACAGUGAUGAUGAC |  | 35 | 
sense UAAAACACCAUGAAAAUAA / antisense UUAUUUUCAUGGUGUUUUA | 58 |  | 

Substance | target inhibition [1] [%] | target inhibition [2] [%] | also measured
sense UAGGCUCACAACACCACAC / antisense GUGUGGUGUUGUGAGCCUA |  | 41 | 
sense UAUUGGGUAUGCUGAGGCC / antisense GGCCUCAGCAUACCCAAUA |  | 43 | 
sense UCAAAGUAGAGUUCUUCCA / antisense UGGAAGAACUCUACUUUGA | 30 |  | 
sense UCACAGGUUCAGAGAUUAC / antisense GUAAUCUCUGAACCUGUGA |  | 34 | 
sense UCAGAGUUGCAACCUCAGC / antisense GCUGAGGUUGCAACUCUGA |  | 1 | 
sense UCCACAGGGUUUUGACACU / antisense AGUGUCAAAACCCUGUGGA | 45 |  | 
sense UCCAUAGACAUGUGUAGCA / antisense UGCUACACAUGUCUAUGGA |  | 63 | 
sense UCUCGGAAGCUGCAGCCAU / antisense AUGGCUGCAGCUUCCGAGA | 40 |  | 
sense UCUGGUCACCCGCUCCUAC / antisense GUAGGAGCGGGUGACCAGA |  |  | target inhibition [4]: 83%
sense UCUGUCACCAACUGAAGUG / antisense CACUUCAGUUGGUGACAGA | 25 |  | 
sense UGAACCUAUCCCGGGACAG / antisense CUGUCCCGGGAUAGGUUCA |  | 20 | 
sense UGACACCGCCAAAUUUAAU / antisense AUUAAAUUUGGCGGUGUCA | 65 |  | 
sense UGACGGAUGCCAGCUUGGG / antisense CCCAAGCUGGCAUCCGUCA |  | 29 | 
sense UGCAGCAGCAGCUGGACGA / antisense UCGUCCAGCUGCUGCUGCA |  |  | target inhibition [4]: 92%
sense UGCCAGGCAGUCUGCUGAG / antisense CUCAGCAGACUGCCUGGCA |  |  | target inhibition [4]: 81%
sense UGGAGAAGACUUAUUCUGC / antisense GCAGAAUAAGUCUUCUCCA |  |  | target inhibition [4]: 81%
sense UGUGUGUGUGUGUAUGUGU / antisense ACACAUACACACACACACA |  | 7 | 
sense UUACCAGUUAUAGGAACAA / antisense UUGUUCCUAUAACUGGUAA | 40 |  | 
sense UUCCCGUUUUAUUCCAGUU / antisense AACUGGAAUAAAACGGGAA | 38 |  | 
sense UUCCGAAAGGUUUUGCUAC / antisense GUAGCAAAACCUUUCGGAA | 32 |  | 
sense UUGCACUAUUGCAGCUCCA / antisense UGGAGCUGCAAUAGUGCAA |  | 5 | 
sense UUUCCAUCCUGCAGAAGAA / antisense UUCUUCUGCAGGAUGGAAA | 27 |  | 
